T/C data for 25 compounds are collected here from PubChem BioAssay AID202 (DTP/NCI, 2004).

In the assay the test system is HT29 xenograft, nude mice, s.c., tumor weight T/C%. As to the kind of experiment: NCI In Vivo Anticancer Drug Screen. Data for tumor model HT29;CX-1 Human Adenocarcinoma (MER+) (subcutaneous) in NU/NU Swiss (nude) mice. Conditions: endpoint: optimum tumor weight change, higher = larger tumour. The protocol: The antitumor activity of compounds was measured in mice bearing transplantable tumors. Survival or tumor size were measured and the results are expressed as the measurement made in the treated group (T) divided by the measurement made in the vehicle treated control group (C). The tumor model used in this assay is HT29;CX-1 Human Adenocarcinoma (MER+) (subcutaneous) in NU/NU Swiss (nude) mice

Setting [1] is: dose: 150.0 mg/kg/injection, schedule: Q04DX003 (ip), vehicle: saline with Tween-80.
The mark [2] stands for this setting: dose: 800.0 mg/kg/injection, schedule: Q04DX003 (ip), vehicle: saline.
[3] abbreviates: dose: 1.0 mg/kg/injection, schedule: Q04DX003 (ip), vehicle: saline.
[4] abbreviates: dose: 2.0 mg/kg/injection, schedule: Q04DX003 (ip), vehicle: saline.
The mark [5] stands for this setting: dose: 50.0 mg/kg/injection, schedule: Q04DX003 (ip), vehicle: saline.
The mark [6] stands for this setting: dose: 100.0 mg/kg/injection, schedule: Q04DX003 (ip), vehicle: saline.
[7] abbreviates: dose: 100.0 mg/kg/injection, schedule: Q04DX003 (ip), vehicle: saline with Tween-80.
Setting [8] is: dose: 100.0 mg/kg/injection, schedule: Q04DX003 (ip), vehicle: suspension in saline.
Where [9] appears, read: dose: 200.0 mg/kg/injection, schedule: Q04DX003 (ip), vehicle: suspension in saline.
The mark [10] stands for this setting: dose: 400.0 mg/kg/injection, schedule: Q04DX003 (ip), vehicle: suspension in saline.
Setting [11] is: dose: 50.0 mg/kg/injection, schedule: Q04DX003 (ip), vehicle: Klucel (hydroxypropylcellulose) (HPC).

“And” between values parts separate entries of the source, which are not always exact repeats. Equal values may be shown once.

As usually defined, the T/C is the ratio of treated to control. Take `C[C@]12CC[C@@H]3c4ccc(OC(=O)Cc5ccc(N(CCCl)CCCl)cc5)cc4CC[C@H]3[C@@H]1CC[C@@H]2OC(=O)Cc1ccc(N(CCCl)CCCl)cc1`: the T/C is 60 % of control under setting [1]; 53 % of control and 66 % of control (dose: 1200.0 mg/kg/injection, schedule: Q04DX003 (ip), vehicle: saline with Tween-80).
In the case of `COc1cc2c[n+](C)c3c4cc5c(cc4ccc3c2cc1OC)OCO5`, the T/C runs as follows: (dose: 20.0 mg/kg/injection, schedule: Q04DX003 (ip), vehicle: saline with Tween-80) 111 % of control; (dose: 40.0 mg/kg/injection, schedule: Q04DX003 (ip), vehicle: saline with Tween-80) 124 % of control; (dose: 80.0 mg/kg/injection, schedule: Q04DX003 (ip), vehicle: saline with Tween-80) 50 % of control.
Turning to `NC(Cc1ccc(N(CCCl)CCCl)cc1)C(=O)O` (stereo unspecified), the T/C (dose: 5.0 mg/kg/injection, schedule: Q04DX003 (ip), vehicle: Klucel (hydroxypropylcellulose) (HPC)) was 73 % of control.
Take `O=C(O)CP(=O)(O)O`: the T/C runs as follows: under setting [2], 94 % of control; (dose: 1600.0 mg/kg/injection, schedule: Q04DX003 (ip), vehicle: saline) 66 % of control.
For the compound `C=CC(=O)N1CN(C(=O)C=C)CN(C(=O)C=C)C1`, the T/C runs as follows: (dose: 3.13 mg/kg/injection, schedule: Q01DX003 (ip), vehicle: saline with Tween-80) 62 % of control; (dose: 6.25 mg/kg/injection, schedule: Q01DX003 (ip), vehicle: saline with Tween-80) 93 % of control.
As to `COc1cccc2c1C(=O)c1c(O)c3c(c(O)c1C2=O)C[C@@](O)(C(C)=O)C[C@@H]3OC1CC(N)C(O)C(C)O1` (stereo partly specified), the T/C was 71 % of control under setting [3] and 113 % of control under setting [4].
Consider `N=c1ccn2c(n1)OC1C(O)C(CO)OC12` (stereo unspecified), for which the T/C was 70 % of control under setting [5]; 49 % of control under setting [6]; 71 % of control and 77 % of control (dose: 200.0 mg/kg/injection, schedule: Q04DX003 (ip), vehicle: saline); 40 % of control under setting [2].
For the compound `NC(=O)c1ccc[n+](Cc2c(Cl)cccc2Cl)c1`, where the note is “dose: 48.0 mg/kg/injection, schedule: Q04DX003 (ip), vehicle: saline”, the T/C was 122 % of control.
Take `O=Cc1ccc(O)c(O)c1`: under setting [7], the T/C is 94 % of control.
For the compound `O=CC(S)CO` (stereo unspecified), the T/C reads like this: under setting [8], 119 % of control; under setting [9], 96 % of control; under setting [10], 107 % of control.
`COC(OC(CO)C(O)S(=O)(=O)O)C(O)S(=O)(=O)O` (stereo unspecified): the T/C by setting is: under setting [9], 54 % of control; under setting [10], 80 % of control.
For `CNC(=O)ON(C(C)=O)C(=O)NC`, the T/C is 52 % of control (dose: 25.0 mg/kg/injection, schedule: Q04DX003 (ip), vehicle: saline); 59 % of control under setting [5]; 98 % of control under setting [6].
Take `COc1cccc2c1C(=O)c1c(O)c3c(c(O)c1C2=O)C[C@@](O)(C(=O)CO)C[C@@H]3OC1CC(N)C(OC)C(C)O1` (stereo partly specified): the T/C (dose: 1.56 mg/kg/injection, schedule: Q04DX003 (ip), vehicle: saline) was 80 % of control.
With `CN(C)c1nc(N(C)C)nc(N(C)C)n1`, the T/C runs as follows: (dose: 60.0 mg/kg/injection, schedule: Q07DX005 (ip), vehicle: Klucel (hydroxypropylcellulose) (HPC)) 91 % of control and 114 % of control; (dose: 120.0 mg/kg/injection, schedule: Q01DX005 (ip), vehicle: Klucel (hydroxypropylcellulose) (HPC)) 38 % of control and 47 % of control; (dose: 120.0 mg/kg/injection, schedule: Q07DX005 (ip), vehicle: Klucel (hydroxypropylcellulose) (HPC)) 72 % of control and 78 % of control; (dose: 240.0 mg/kg/injection, schedule: Q04DX005 (ip), vehicle: Klucel (hydroxypropylcellulose) (HPC)) 27 % of control and 38 % of control; (dose: 240.0 mg/kg/injection, schedule: Q07DX005 (ip), vehicle: Klucel (hydroxypropylcellulose) (HPC)) 37 % of control.
For the compound `C[n+]1c(-c2cccc3ccccc23)c2cc(N)ccc2c2ccccc21`, the T/C (dose: 1.5 mg/kg/injection, schedule: Q04DX003 (ip), vehicle: saline) was 86 % of control.
Turning to `O=c1n[n+]([O-])ccn1C1OC(CO)C(O)C1O` (stereo unspecified), the T/C was 75 % of control under setting [8]; 71 % of control under setting [9]; 68 % of control under setting [10]; 82 % of control (dose: 800.0 mg/kg/injection, schedule: Q04DX003 (ip), vehicle: suspension in saline).
In the case of `CC1OC(OC2CC(O)(C(=O)CO)Cc3c(O)c4c(c(O)c32)C(=O)c2ccccc2C4=O)CC(N)C1O` (stereo unspecified), for the setting “dose: 0.25 mg/kg/injection, schedule: Q04DX003 (ip), vehicle: water”, the T/C was 89 % of control.
For the compound `CC(=O)OCC1OC(n2cc(CBr)nn2)C(OC(C)=O)C(OC(C)=O)C1OC(C)=O` (stereo unspecified), the T/C is, setting by setting: (dose: 50.0 mg/kg/injection, schedule: Q04DX003 (ip), vehicle: saline with Tween-80) 78 % of control; under setting [7], 92 % of control; (dose: 200.0 mg/kg/injection, schedule: Q04DX003 (ip), vehicle: saline with Tween-80) 69 % of control.
On to `CN(C)N=Nc1cn[nH]c1C(N)=O`, for which the T/C was 69 % of control (dose: 25.0 mg/kg/injection, schedule: Q04DX003 (ip), vehicle: Klucel (hydroxypropylcellulose) (HPC)); 123 % of control under setting [11]; 79 % of control (dose: 100.0 mg/kg/injection, schedule: Q04DX003 (ip), vehicle: Klucel (hydroxypropylcellulose) (HPC)); 88 % of control (dose: 200.0 mg/kg/injection, schedule: Q04DX003 (ip), vehicle: Klucel (hydroxypropylcellulose) (HPC)).
Consider `CN(CO)c1nc(N(C)CO)nc(N(C)CO)n1`, for which the T/C is, setting by setting: (dose: 25.0 mg/kg/injection, schedule: Q01DX005 (ip), vehicle: Klucel (hydroxypropylcellulose) (HPC)) 75 % of control; (dose: 25.0 mg/kg/injection, schedule: Q04DX005 (ip), vehicle: Klucel (hydroxypropylcellulose) (HPC)) 62 % of control; (dose: 25.0 mg/kg/injection, schedule: Q07DX005 (ip), vehicle: Klucel (hydroxypropylcellulose) (HPC)) 93 % of control; (dose: 50.0 mg/kg/injection, schedule: Q01DX005 (ip), vehicle: Klucel (hydroxypropylcellulose) (HPC)) 102 % of control and 123 % of control; (dose: 50.0 mg/kg/injection, schedule: Q04DX005 (ip), vehicle: Klucel (hydroxypropylcellulose) (HPC)) 119 % of control and 120 % of control; (dose: 50.0 mg/kg/injection, schedule: Q07DX005 (ip), vehicle: Klucel (hydroxypropylcellulose) (HPC)) 99 % of control. Further, the T/C is, setting by setting: under setting [8], 75 % of control; (dose: 100.0 mg/kg/injection, schedule: Q04DX005 (ip), vehicle: Klucel (hydroxypropylcellulose) (HPC)) 99 % of control and 116 % of control; (dose: 100.0 mg/kg/injection, schedule: Q07DX005 (ip), vehicle: Klucel (hydroxypropylcellulose) (HPC)) 48 % of control; (dose: 200.0 mg/kg/injection, schedule: Q07DX005 (ip), vehicle: Klucel (hydroxypropylcellulose) (HPC)) 47 % of control and 58 % of control.
On to `CN1N=C(N)c2cn(C3OC(COP(=O)(O)O)C(O)C3O)c3ncnc1c23` (stereo unspecified), for which the T/C (dose: 50.0 mg/kg/injection, schedule: Q04DX003 (ip), vehicle: water) is 121 % of control.
Consider `COc1cccc2c1C(=O)c1c(O)c3c(c(O)c1C2=O)C[C@@](O)(C(=O)CO)C[C@@H]3OC1CC(N)CC(C)O1` (stereo partly specified), for which the T/C reads like this: (dose: 0.37 mg/kg/injection, schedule: Q04DX003 (ip), vehicle: water) 63 % of control; (dose: 0.75 mg/kg/injection, schedule: Q04DX003 (ip), vehicle: water) 54 % of control; (dose: 1.5 mg/kg/injection, schedule: Q04DX003 (ip), vehicle: water) 39 % of control.
With `Cc1c(N)nc(C(CC(N)=O)NCC(N)C(N)=O)nc1C(=O)NC(C(=O)NC(C)C(O)CC(=O)NC(C(=O)NC(OC1OC(C)C(N)C(O)C1O)C(O)c1nc(-c2nc(C(=O)NCCCC(N)CC(=O)NCCCNCCCCN)cs2)cs1)C(C)O)C(OC1OC(CO)C(O)C(O)C1OC1OC(CO)C(O)C(OC(N)=O)C1O)c1cnc[nH]1` (stereo unspecified), the T/C is 92 % of control (dose: 0.5 mg/kg/injection, schedule: Q04DX003 (ip), vehicle: saline); 45 % of control under setting [3]; 39 % of control under setting [4].
With `Nc1nc(N)c2cc(CNc3ccc(C(=O)NC(CC(=O)O)CC(=O)O)cc3)ccc2n1`, the T/C under setting [11] was 84 % of control.
As to `NC(=S)N/N=C/c1ccc(O)cn1`, the T/C by setting is: under setting [1], 63 % of control; (dose: 300.0 mg/kg/injection, schedule: Q04DX003 (ip), vehicle: saline with Tween-80) 70 % of control; (dose: 600.0 mg/kg/injection, schedule: Q04DX003 (ip), vehicle: saline with Tween-80) 87 % of control.
